Data reported in ChEMBL document CHEMBL1135347, “Spirocyclic NK(1) antagonists II: [4.5]-spiroethers” (Bioorg Med Chem Lett, 2002).

Experiments:
[1] = Half-life in Dog; type: ADME, organism-based, Canis lupus familiaris; conditions: in vivo
[2] = Bioavailability in rat; type: ADME, organism-based; conditions: in vivo
[3] = Bioavailability in dog; type: ADME, organism-based, Canis lupus familiaris; conditions: in vivo
[4] = Half-life in rat; type: ADME, organism-based; conditions: in vivo
Mustela putorius furo [5] = test: Compound was tested for inhibition of emetic response in ferret by administering intravenously following emetogen challenge after 3 min (iv); type: functional
Mustela putorius furo [6] = test: Compound was tested for inhibition of emetic response in ferret by administering perorally following emetogen challenge after 60 min (po); type: functional
Gerbillinae [7] = test: Ability to inhibit the foot tapping in gerbil immediately following central infusion of GR-73632 (agonist), 5 min after intravenous administration of compound; type: functional; conditions: read-out: ID50 (the source's name)
Substance-P receptor = Substance-P receptor (Homo sapiens, UniProt P25103); test: Displacement of [125I]-labeled substance P from the cloned human Tachykinin receptor 1 expressed in CHO cells; type: cell-based
Substance-P receptor, sequence (P25103 whole entry, the tested form may be a part): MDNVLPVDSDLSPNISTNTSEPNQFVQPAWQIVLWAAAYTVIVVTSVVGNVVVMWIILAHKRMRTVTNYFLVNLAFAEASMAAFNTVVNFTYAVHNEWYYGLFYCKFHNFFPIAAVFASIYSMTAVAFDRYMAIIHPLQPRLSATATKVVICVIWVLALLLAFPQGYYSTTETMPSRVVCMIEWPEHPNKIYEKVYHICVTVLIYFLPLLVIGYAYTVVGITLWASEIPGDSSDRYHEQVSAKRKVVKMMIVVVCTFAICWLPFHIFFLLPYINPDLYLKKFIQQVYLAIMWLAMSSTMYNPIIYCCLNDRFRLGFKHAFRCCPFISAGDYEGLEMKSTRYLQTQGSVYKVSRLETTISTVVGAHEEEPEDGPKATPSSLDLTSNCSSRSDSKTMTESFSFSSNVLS

Gerbillinae [8] = test: Ability to inhibit the foot tapping in gerbil immediately following central infusion of GR-73632 (agonist), 5 min after intravenous administration of compound (1 mg/kg); type: functional

Question: Which results are given for COc1ccc(-n2nnnc2C(F)(F)F)cc1[C@H]1COC2(CCCNC2c2ccccc2)C1 (stereo not given in full)?
Answer: half-life [1]: 2.7 h; bioavailability [2]: 16%; bioavailability [3]: 79%; half-life [4]: 1.7 h; ID90 (Mustela putorius furo [5]): 0.2 mg/kg; ID90 (Mustela putorius furo [6]): 1 mg/kg; ED50 (Gerbillinae [7]): 0.1 mg/kg; IC50 (Substance-P receptor): 0.11 nM

Question: Which results are given for COc1ccc(-n2nnnc2C(F)(F)F)cc1[C@H]1COC2(CCCN(Cc3c[nH]cn3)C2c2ccccc2)C1 (stereo not given in full)?
Answer: ED50 (Gerbillinae [7]): 0.5 mg/kg; IC50 (Substance-P receptor): 0.11 nM

Question: With COc1ccc(-n2nnnc2C(F)(F)F)cc1[C@H]1COC2(CCCN(Cc3n[nH]c(O)n3)C2c2ccccc2)C1 (stereo not given in full) as the compound, how does the Inhibition (Gerbillinae [8]) read?
Answer: Its Inhibition is 6%.

Question: What about the IC50 (Substance-P receptor) of the same compound?
Answer: The IC50 was 0.1 nM.

Question: For COc1ccccc1[C@H]1COC2(CCCNC2c2ccccc2)C1 (stereo not given in full), which IC50 (Substance-P receptor) is on record?
Answer: Its IC50 is 6.5 nM.

Question: With COc1ccc(OC(F)(F)F)cc1C1=CC2(CCCNC2c2ccccc2)OC1 (stereo not given) as the compound, how does the ED50 (Gerbillinae [7]) read?
Answer: Its ED50 is 0.2 mg/kg.

Question: What about the IC50 (Substance-P receptor) of the same compound?
Answer: Its IC50 is 0.35 nM.

Question: For COc1ccc(-n2nnnc2C(F)(F)F)cc1C1=CC2(CCCN[C@H]2c2ccccc2)OC1 (stereo not given in full), which ED50 (Gerbillinae [7]) is on record?
Answer: The ED50 was 0.1 mg/kg.

Question: And the IC50 (Substance-P receptor)?
Answer: The IC50 was 0.08 nM.

Question: Which results are given for COc1ccc(OC(F)(F)F)cc1[C@H]1COC2(CCCN[C@H]2c2ccccc2)C1 (stereo not given in full)?
Answer: ID90 (Mustela putorius furo [5]): 1 mg/kg; ID90 (Mustela putorius furo [6]): 3 mg/kg; ED50 (Gerbillinae [7]): 0.3 mg/kg; IC50 (Substance-P receptor): 0.3 nM

Question: Which results are given for COc1ccc(OC(F)(F)F)cc1[C@H]1COC2(CCCN(Cc3nc[nH]n3)C2c2ccccc2)C1 (stereo not given in full)?
Answer: Inhibition (Gerbillinae [8]): 45%; IC50 (Substance-P receptor): 0.89 nM

Question: With COc1ccccc1C1=CC2(CCCNC2c2ccccc2)OC1 (stereo not given) as the compound, how does the IC50 (Substance-P receptor) read?
Answer: Its IC50 is 49 nM.

Question: For c1ccc([C@H]2COC3(CCCN[C@H]3c3ccccc3)C2)cc1 (stereo not given in full), which IC50 (Substance-P receptor) is on record?
Answer: The IC50 was 133 nM.
